Assay results as given in patent publication US20150105252A1, “SUBSTITUTED PYRAZOLES AS HERBICIDES” (E I DU PONT DE NEMOURS AND COMPANY, priority 2013, published 2015).

Columns and labels:
Experiment in all cases: Test F preemergence
wild poinsettia = format: in vivo, Euphorbia heterophylla
From the text: (§1) Seeds of plant species selected from corn (Zea mays), soybean (Glycine max), velvetleaf (Abutilon theophrasti), lambsquarters (Chenopodium album), wild poinsettia (Euphorbia heterophylla), pigweed, palmer (palmer pigweed, Amaranthus palmeri), common waterhemp (Amaranthus rudis), surinam grass (Brachiaria decumbens), large crabgrass (Digitaria sanguinalis), crabgrass, Brazil (Brazilian crabgrass, Digitaria horizontalis), fall panicum (Panicum dichotomiflorum), giant foxtail (Setaria faberii), green foxtail (Setaria viridis), goosegrass (Eleusine indica), johnsongrass (Sorghum halepense), common ragweed (Ambrosia elation), barnyardgrass (Echinochloa crus-galli), southern sandbur (Cenchrus echinatus), arrowleaf sida (Sida rhombifolia), Italian ryegrass (Lolium multiflorum), dayflower, VA (Virginia (VA) dayflower, Commelina virginica), field bindweed (Convolvulus arvensis), cocklebur (common cocklebur, Xanthium strumarium), morningglory (Ipomoea coccinea), nightshade (eastern black nightshade, Solanum ptycanthum), kochia (Kochia scoparia), yellow nutsedge (Cyperus esculentus), and hairy beggarticks (Bidens pilosa), were planted into a silt loam soil and treated preemergence with test chemicals formulated in a non-phytotoxic solvent mixture which included a surfactant.
(§2) At the same time, plants from these crop and weed species and also horseweed (Canada horseweed, Conyza canadensis), smartweed (ladysthumb smartweed, Polygonum persicaria), waterhemp_RES1, (ALS & Triazine resistant common waterhemp, Amaranthus rudis), and waterhemp_RES2, (ALS & HPPD resistant common waterhemp, Amaranthus rudis) were treated with postemergence applications of test chemicals formulated in the same manner. Plants ranged in height from 2 to 18 cm for postemergence treatments (1- to 4-leaf stage). Treated plants and controls were maintained in a greenhouse for 14 to 21 days, after which time all species were compared to controls and visually evaluated. Plant response ratings, summarized in Table F, are based on a scale of 0 to 100 where 0 is no effect and 100 is complete control. A dash (-) response means no test result.

morningglory = format: in vivo, Ipomoea coccinea
Summary of the method: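 Test chemicals in a non-phytotoxic solvent with surfactant were applied preemergence to seeds sown in silt loam, or postemergence to plants 2–18 cm tall (1- to 4-leaf stage). Plants were kept in a greenhouse for 14–21 days and then rated visually against controls on a 0 (no effect) to 100 (complete control) scale.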

johnsongrass = format: in vivo, Sorghum halepense
From the text: as §1, §2

corn = format: in vivo, Zea mays
From the text: as §1, §2

lambsquarters = format: in vivo, Chenopodium album
From the text: as §1, §2

southern sandbur = format: in vivo, Cenchrus echinatus
From the text: as §1, §2

[1] = Preemergence, 31 g ai/ha, scale 0 to 100
[2] = Preemergence, 62 g ai/ha, scale 0 to 100
[3] = Preemergence, 125 g ai/ha, scale 0 to 100
[4] = preemergence, 8 g ai/ha, scale 0 to 100, 100 is complete control
[5] = preemergence, 16 g ai/ha, scale 0 to 100, 100 is complete control
[6] = Preemergence, 250 g ai/ha, scale 0 to 100

Compound | Plant response rating, Wild Poinsettia (wild poinsettia; [2]) | Plant response rating, Wild Poinsettia (wild poinsettia; [3]) | Plant response rating, Morningglory (morningglory; [2]) | Plant response rating, Morningglory (morningglory; [3]) | Plant response rating, Johnsongrass (johnsongrass; [2]) | Plant response rating, Johnsongrass (johnsongrass; [3]) | Plant response rating, Corn (corn; [2]) | Plant response rating, Corn (corn; [3]) | Plant response rating, Lambsquarters (lambsquarters; [2]) | Plant response rating, Lambsquarters (lambsquarters; [3]) | Plant response rating, Southern Sandbur (southern sandbur; [2]) | Plant response rating, Southern Sandbur (southern sandbur; [3]) | other results
CCc1cc(-c2ccc(C(F)(F)F)cc2)nn1Cc1ccnc(C(F)(F)F)c1 [Compound 110] | 50 | 80 | 10 | 60 | 25 | 80 | 0 | 15 | 50 | 100 | 35 | 75 | Plant response rating, Wild Poinsettia (wild poinsettia; [1]): 35; Plant response rating, Wild Poinsettia (wild poinsettia; [4]): 25; Plant response rating, Wild Poinsettia (wild poinsettia; [5]): 25; Plant response rating, Morningglory (morningglory; [1]): 10; Plant response rating, Morningglory (morningglory; [4]): 0; Plant response rating, Morningglory (morningglory; [5]): 20; Plant response rating, Johnsongrass (johnsongrass; [1]): 15; Plant response rating, Johnsongrass (johnsongrass; [4]): 0; Plant response rating, Johnsongrass (johnsongrass; [5]): 0; Plant response rating, Corn (corn; [1]): 0; Plant response rating, Corn (corn; [4]): 0; Plant response rating, Corn (corn; [5]): 0; Plant response rating, Lambsquarters (lambsquarters; [1]): 65; Plant response rating, Lambsquarters (lambsquarters; [4]): 0; Plant response rating, Lambsquarters (lambsquarters; [5]): 0; Plant response rating, Southern Sandbur (southern sandbur; [1]): 20; Plant response rating, Southern Sandbur (southern sandbur; [4]): 0; Plant response rating, Southern Sandbur (southern sandbur; [5]): 20
CCc1cc(C(=O)NCC(F)(F)F)nn1Cc1ccnc(Br)c1 [Compound 224] | 60 | 65 | 0 | 0 | 0 | 35 | 0 | 20 | 98 | 98 | 5 | 35 | Plant response rating, Wild Poinsettia (wild poinsettia; [6]): 85; Plant response rating, Morningglory (morningglory; [6]): 25; Plant response rating, Johnsongrass (johnsongrass; [6]): 75; Plant response rating, Corn (corn; [6]): 40; Plant response rating, Lambsquarters (lambsquarters; [6]): 100; Plant response rating, Southern Sandbur (southern sandbur; [6]): 15
